Reference: paper PMC8123663, “Small-Molecule Inhibitors of the RNA M6A Demethylases FTO Potently Support the Survival of Dopamine Neurons” (International Journal of Molecular Sciences, 2021)
Values joined by “and” are separate entries in the source; they are usually repeats but may differ in a detail not shown here. Identical values can stand only once. “Also recorded” adds a separate entry of the source.

Experiments:
[1] = target: T1, FTO protein (Homo sapiens, UniProt Q9C0B1); experiment: FTO enzyme inhibition assay (demethylation of m6A RNA probe); format: biochemical; design: 6His (C); purchased ProteoGenics SAS (ProteoGenix), Schiltigheim, France; host or cells: HEK293 (transient transfection); conditions: for Inhibitory effect on FTO: up to the 100 µM concentration; for IC50: 10 nM FTO, 200 ng m6A RNA probe, 2 h at RT
Protocol: The enzymatic assay was modified from Huang et al. The experiments were conducted in reaction buffer (50 mM Tris-HCl, pH 7.5, 300 μM 2OG, 280 μM (NH4)2Fe(SO4)2, and 2 mM L-ascorbic acid). The reaction mixture contained 200 ng methylated N^6-adenine RNA probe (SEQ ID NO: 1) (5′-CUUGUCAm6[…]-3′, Dharmacon, Lafayette, CO, USA) and 10 nM FTO protein and different concentrations of ligands (1 nM to 100 µM). Reactions were incubated on 96-well plate for 2 h at RT. After that, the amount of m^6A that was measured using EpiQuik m^6A RNA methylation Quantification Colorimetric Kit (Epigentek, Farmingdale, NY, USA).
The inhibitory effect IE of compounds on RNA probe demethylation by FTO was calculated as the enhancement of the m^6A amount as compared to the negative control (DMSO) relative to the difference between m^6A amounts of the positive control (max inhibition) and the negative control (Equation (2)) (2) IE=Cinh− CDMSO/Cinh(max)− CDMSO where Cinh, Cinh(max), and CDMSO are the amounts of m^6A at a given concentration of the inhibitor, maximum inhibition and in the case of DMSO, respectively.
Enzymatic assay curve-fitting analysis and determination of the IC50 and EC50 values were performed using AAT Bioquest, Inc. Quest Graph™ IC50 Calculator (v.1, Sunnyvale, CA, USA). MST data analysis was performed using MO.Affinity Analysis v2.3 software (NanoTemper Technologies GmbH, Munich, Germany). Statistical significance in cell survival experiments was assessed using one-way ANOVA and unpaired t-test with the GraphPad Prism8 software (GraphPad Software, Inc., 2365 Northside Dr., Suite 560, San Diego, CA, USA). Results were considered statistically significant at p values lower than 0.05.

[2] = tested on: mouse midbrain dopamine neurons; experiment: Survival of growth factor-deprived primary midbrain dopamine neurons; format: cell-based; conditions: for Protection of embryonic midbrain dopamine neurons from growth factor deprivation-induced cell death: E13 mouse midbrain cultures, TH-positive cells, 10–1000 nM, five days; for Number of TH-positive neurons: three tested concentrations, growth factor deprivation model; for Neuroprotective effect at 10 nM / Neuroprotective effect at 100 nM / Neuroprotective effect at 1000 nM: growth factor deprivation
Protocol: We, therefore, assessed the neuroprotective ability of different concentrations of FTO or ALKBH5 inhibitors in cultured growth factor deprived dopamine neurons. Human recombinant GDNF (100 ng/mL) or a condition without any neurotrophic compound added were used as positive and negative controls, respectively. Growth factor deprivation caused cell death by 50–70%. Representative images of mouse E13 wild-type midbrain cultures treated with vehicle, FTO or ALKBH5 inhibitors, and GDNF (positive control) probed with anti-TH antibody are shown on Figure 7B.
The midbrain floors were dissected from the ventral mesencephalic of 13 days old NMRI strain mouse embryos following the published procedure. The tissues were incubated with 0.5% trypsin (103139, MP Biomedicals, Inc, Thermo Fisher Scientific, Waltham, MA, USA) in HBSS (Ca^2+/Mg^2+-free) (14170112, Invitrogen, Thermo Fisher Scientific, Carlsbad, CA, USA) for 20 min at 37 °C, then mechanically dissociated. Cells were plated onto the 96-well plates coated with poly-L-ornithine (Sigma-Aldrich, Merck KGaA, St. Louis, MO, USA). Equal volumes of cell suspension were plated onto the center of the dish. The dopamine neurons were cultured for five DIV in presence of cell culture media Dulbecco’s MEM/Nut mix F12 (Invitrogen/Gibco; 21331–020), 100 × N2 serum supplement (Invitrogen/ Gibco; 17502–048), 33 mM D-Glucose (Sigma; G-8769), 0.5 mM L-Glutamine (Invitrogen/ Gibco; 25030–032), and 100 μg/mL Primocin (Invivo Gen, San Diego, CA, USA)]. On 6 DIV, to deprive growth factors, the cultures were washed three times with normal medium and the FTO and ALKBH5 inhibitors and glial cell line-derived neurotrophic factor (GDNF) were applied. The cells were grown for five days with different concentrations of FTO and ALKBH5 inhibitors. Human recombinant GDNF (100 ng/mL) (Icosagen AS, Tartu, Estonia) or a condition without any neurotrophic compound added were used as positive and negative controls, respectively.
After growing five days, the neuronal cultures were fixed and stained with anti-Tyrosine Hydroxylase antibody (MAB318, Millipore Bioscience Research Reagents, Temecula, CA, USA). Images were acquired by CellInsight (Thermo Fisher Scientific) high-content imaging equipment. Immunopositive neurons were counted by CellProfiler software and the data was analyzed by CellProfiler analyst software. The results are expressed as % of cell survival compared to GDNF-maintained neurons.

[3] = tested on: ALKBH5; design: method as in earlier work; conditions: read-out: IC50 against ALKBH5; cited from earlier work
[4] = tested on: murine endothelial cells bEnd3 co-cultured with murine HIFko astrocytes; experiment: Artificial in vitro blood-brain barrier model; format: in vitro ADME; conditions: 10 µM in insert, 1 h; concentration in well ('brain') / concentration in insert
Text: The effects of FTO inhibitors were studied in the artificial in vitro BBB model, where murine endothelial cells bEnd3 were co-cultured with murine HIFko astrocytes on hanging cell culture inserts. The BBB penetration % defined as the ratio of the concentration of the compound in the well (‘brain’) side and the concentration in the insert, were 31.7 ± 3.3% for compound 2 and 30.8 ± 1.9% for compound 3.
Artificial in vitro blood–brain barrier (BBB) was established as described by Le Joncour et al. Murine endothelial cells bEnd3 (ATCC CRL-2299) were co-cultured with murine hypoxia-inducible factor knock out (HIFko) astrocytes (passage 12, received from Le Joncour) on hanging cell culture inserts (BD Falcon 353091, Franklin Lakes, NJ, USA) for five days in fetal bovine serum (FBS)-free conditions. 2.5 mL of FTO inhibitors (final concentration of 10 µM) were added into the insert (representing the ‘blood’ side) of the BBB cell. After 1 h incubation, 1 mL of the sample was taken from the insert and from the well (‘brain’ side), and the concentration of the compounds was measured by high-performance liquid chromatography (HPLC). […] The concentration of the studied compounds is each side of the BBB cell were analyzed using LC-MS system consisting of Agilent 1290 UHPLC (Agilent, Inc., Santa Clara, CA, USA) and Agilent 6460 Triple Quadrupole MS (Agilent, Inc., Santa Clara, CA 95051, USA). […]

[5] = target: T1, FTO protein; experiment: Protein binding by microscale thermophoresis (MST); design: purchased ProteoGenics SAS (ProteoGenix), Schiltigheim, France; host or cells: HEK293 (transient transfection); conditions: labelled FTO 20 nM, ligand 0–10 µM, 25 °C, pH 7.4
Protocol: The microscale thermophoresis (MST) experiments were performed using Monolith NT.115 instrument (NanoTemper Technologies GmbH, Germany). Recombinant human FTO protein was labeled through His-tag using Monolith His-Tag Labeling Kit RED-tris-NTA (NanoTemper Technologies GmbH; MO-L008). The labelled FTO protein (target) was used at 20 nM in all the experiments and 10 µM starting concentrations of ligands FTO inhibitors 2 or 3 were used in both series of experiments.
The measurements were done in a buffer containing 10 mM Na-phosphate buffer, pH 7.4, 1 mM MgCl2, 3 mM KCl, 150 mM NaCl, 0.05% Tween-20 in premium coated capillaries (NanoTemper Technologies GmbH; MO-K025) using red LED source, power set at 100% and medium MST power at 25 °C. Each data point represents mean fraction bound values from n = 3 independent experiments per binding pair ±S.D, Kd values ± error estimations are indicated. Data analysis was performed using MO.Affinity Analysis v2.3 software.

[6] = tested on: dopamine neurons; experiment: 6-OHDA induced death of dopamine neurons; format: cell-based; conditions: data not shown

T1 sequence (Q9C0B1 whole entry): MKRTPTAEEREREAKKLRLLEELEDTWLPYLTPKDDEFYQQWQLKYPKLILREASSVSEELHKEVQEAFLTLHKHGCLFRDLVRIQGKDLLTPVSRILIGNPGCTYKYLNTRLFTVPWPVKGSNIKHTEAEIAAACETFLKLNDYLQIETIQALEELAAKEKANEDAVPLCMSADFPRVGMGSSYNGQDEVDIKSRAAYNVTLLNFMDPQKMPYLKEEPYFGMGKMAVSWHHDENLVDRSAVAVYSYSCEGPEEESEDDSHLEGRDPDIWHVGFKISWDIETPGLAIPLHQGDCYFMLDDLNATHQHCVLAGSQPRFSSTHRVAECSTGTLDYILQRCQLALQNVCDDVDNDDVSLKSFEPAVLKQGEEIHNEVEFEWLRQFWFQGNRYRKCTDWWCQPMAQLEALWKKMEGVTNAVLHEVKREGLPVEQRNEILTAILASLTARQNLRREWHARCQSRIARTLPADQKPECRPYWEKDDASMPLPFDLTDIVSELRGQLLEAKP

Row | Compound | Inhibitory effect on FTO [1] | Protection of embryonic midbrain dopamine neurons from growth factor deprivation-induced cell death [2] | Neuroprotective effect at 10 nM [2] | Neuroprotective effect at 100 nM [2] | Neuroprotective effect at 1000 nM [2] | also measured
1 | Cc1cccc(C(=O)NNC(=O)/C=C/C(=O)O)c1 [Compound 4, (2E)-4-[(3-methylphenyl)formohydrazido]-4-oxobut-2-enoic acid] | No significant inhibitory effect |  |  |  |  | 
2 | O=C(O)CSC(O)C(=O)c1ccccc1 (stereo not drawn) [Compound 7, 2-[(1-hydroxy-2-oxo-2-phenylethyl)sulfanyl]acetic acid] |  | only trend |  |  |  | Number of TH-positive neurons [2]: increased; IC50 [3]: 840 nM
3 | Cc1cccc(C(=O)NNC(=O)c2cccc(C)c2)c1 [Compound 6, 3-methyl-N’-(3-methylbenzoyl)benzohydrazide] | No significant inhibitory effect |  |  |  |  | 
4 | Nc1c(C(=O)O)cnc2ccccc12 [Compound 1, 4-aminoquinoline-3-carboxylic acid] | No significant inhibitory effect |  |  |  |  | 
5 | Nc1cccc2cc(C(=O)O)cnc12 [Compound 3, 8-aminoquinoline-3-carboxylic acid] |  | dose-dependently protected; also recorded: comparable to that of GDNF | neuroprotective effect can be seen | statistically significant outcome | statistically significant outcome | IC50 [1]: 28900 nM; BBB penetration % [4]: 30.8% and 30.8 ± 1.9%; Kd [5]: 337 nM; Rescue of dopamine neurons from 6-OHDA induced neuronal cell death [6]: recued dopamine neurons
6 | Nc1c(C(=O)O)cnc2c(Cl)cccc12 [Compound 2, 4-amino-8-chloroquinoline-3-carboxylic acid] |  | dose-dependently protected; also recorded: comparable to that of GDNF | neuroprotective effect can be seen | statistically significant outcome | statistically significant outcome | IC50 [1]: 1460 nM; BBB penetration % [4]: 31.7% and 31.7 ± 3.3%; Kd [5]: 185 nM; Rescue of dopamine neurons from 6-OHDA induced neuronal cell death [6]: recued dopamine neurons
7 | 8-hydroxyquinoline-5-carboxylic acid [Compound 5] | No significant inhibitory effect |  |  |  |  | 
8 | O=C1CC(NCc2ccco2)C(=O)NN1 (stereo not drawn) [Compound 8, 4-{[(furan-2-yl)methyl]amino}-1,2-diazinane-3,6-dione] |  |  | rescued | only a trend | rescued | Number of TH-positive neurons [2]: increased
